Reference: ChEMBL document CHEMBL5696442, “Discovery of type II inhibitors of TGFβ-activated kinase 1 (TAK1) and mitogen-activated protein kinase kinase kinase kinase 2 (MAP4K2)” (J Med Chem, 2015)

Legend:
[1] = target: T1, Serine/threonine-protein kinase Nek9 (Homo sapiens) (UniProt Q8TD19); assay: Inhibition of NEK9 Lys2 labeling site in human Huh-7 cells at 1 uM by KiNativ Profiling analysis relative to control; format: cell-based
T1 sequence (whole entry): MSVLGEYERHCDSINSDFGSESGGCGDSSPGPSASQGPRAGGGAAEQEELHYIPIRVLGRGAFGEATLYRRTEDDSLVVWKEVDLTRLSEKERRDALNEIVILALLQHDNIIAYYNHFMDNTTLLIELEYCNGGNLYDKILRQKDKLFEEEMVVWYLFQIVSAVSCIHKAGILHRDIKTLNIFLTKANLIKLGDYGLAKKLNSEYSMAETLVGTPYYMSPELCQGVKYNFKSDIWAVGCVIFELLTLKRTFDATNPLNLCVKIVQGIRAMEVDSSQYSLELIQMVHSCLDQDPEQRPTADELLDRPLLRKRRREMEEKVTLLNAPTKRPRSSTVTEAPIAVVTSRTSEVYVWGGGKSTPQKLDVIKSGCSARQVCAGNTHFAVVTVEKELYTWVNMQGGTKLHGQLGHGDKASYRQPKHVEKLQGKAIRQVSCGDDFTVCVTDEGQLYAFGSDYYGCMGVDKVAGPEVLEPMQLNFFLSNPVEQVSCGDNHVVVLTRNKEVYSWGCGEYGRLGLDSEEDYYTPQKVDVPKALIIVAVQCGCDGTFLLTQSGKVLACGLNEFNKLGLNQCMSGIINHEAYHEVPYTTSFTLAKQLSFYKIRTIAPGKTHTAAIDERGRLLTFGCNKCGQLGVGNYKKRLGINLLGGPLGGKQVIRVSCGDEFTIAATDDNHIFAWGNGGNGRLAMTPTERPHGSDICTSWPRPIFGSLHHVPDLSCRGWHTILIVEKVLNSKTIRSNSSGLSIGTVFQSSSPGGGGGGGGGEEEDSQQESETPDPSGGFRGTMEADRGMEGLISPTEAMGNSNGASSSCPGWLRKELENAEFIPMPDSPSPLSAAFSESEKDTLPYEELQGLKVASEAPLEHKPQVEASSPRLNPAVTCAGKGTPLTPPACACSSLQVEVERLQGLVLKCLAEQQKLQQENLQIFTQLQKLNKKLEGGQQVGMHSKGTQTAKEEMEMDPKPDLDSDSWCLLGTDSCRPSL

[2] = target: Microtubule-associated serine/threonine-protein kinase 1 (Homo sapiens) (UniProt Q9Y2H9); assay: Inhibition of MAST1 Lys2 labeling site in human A-375 cells at 0.5 uM by KiNativ Profiling analysis relative to control
Chain of Microtubule-associated serine/threonine-protein kinase 1 (Homo sapiens) (Q9Y2H9 whole entry, looked up): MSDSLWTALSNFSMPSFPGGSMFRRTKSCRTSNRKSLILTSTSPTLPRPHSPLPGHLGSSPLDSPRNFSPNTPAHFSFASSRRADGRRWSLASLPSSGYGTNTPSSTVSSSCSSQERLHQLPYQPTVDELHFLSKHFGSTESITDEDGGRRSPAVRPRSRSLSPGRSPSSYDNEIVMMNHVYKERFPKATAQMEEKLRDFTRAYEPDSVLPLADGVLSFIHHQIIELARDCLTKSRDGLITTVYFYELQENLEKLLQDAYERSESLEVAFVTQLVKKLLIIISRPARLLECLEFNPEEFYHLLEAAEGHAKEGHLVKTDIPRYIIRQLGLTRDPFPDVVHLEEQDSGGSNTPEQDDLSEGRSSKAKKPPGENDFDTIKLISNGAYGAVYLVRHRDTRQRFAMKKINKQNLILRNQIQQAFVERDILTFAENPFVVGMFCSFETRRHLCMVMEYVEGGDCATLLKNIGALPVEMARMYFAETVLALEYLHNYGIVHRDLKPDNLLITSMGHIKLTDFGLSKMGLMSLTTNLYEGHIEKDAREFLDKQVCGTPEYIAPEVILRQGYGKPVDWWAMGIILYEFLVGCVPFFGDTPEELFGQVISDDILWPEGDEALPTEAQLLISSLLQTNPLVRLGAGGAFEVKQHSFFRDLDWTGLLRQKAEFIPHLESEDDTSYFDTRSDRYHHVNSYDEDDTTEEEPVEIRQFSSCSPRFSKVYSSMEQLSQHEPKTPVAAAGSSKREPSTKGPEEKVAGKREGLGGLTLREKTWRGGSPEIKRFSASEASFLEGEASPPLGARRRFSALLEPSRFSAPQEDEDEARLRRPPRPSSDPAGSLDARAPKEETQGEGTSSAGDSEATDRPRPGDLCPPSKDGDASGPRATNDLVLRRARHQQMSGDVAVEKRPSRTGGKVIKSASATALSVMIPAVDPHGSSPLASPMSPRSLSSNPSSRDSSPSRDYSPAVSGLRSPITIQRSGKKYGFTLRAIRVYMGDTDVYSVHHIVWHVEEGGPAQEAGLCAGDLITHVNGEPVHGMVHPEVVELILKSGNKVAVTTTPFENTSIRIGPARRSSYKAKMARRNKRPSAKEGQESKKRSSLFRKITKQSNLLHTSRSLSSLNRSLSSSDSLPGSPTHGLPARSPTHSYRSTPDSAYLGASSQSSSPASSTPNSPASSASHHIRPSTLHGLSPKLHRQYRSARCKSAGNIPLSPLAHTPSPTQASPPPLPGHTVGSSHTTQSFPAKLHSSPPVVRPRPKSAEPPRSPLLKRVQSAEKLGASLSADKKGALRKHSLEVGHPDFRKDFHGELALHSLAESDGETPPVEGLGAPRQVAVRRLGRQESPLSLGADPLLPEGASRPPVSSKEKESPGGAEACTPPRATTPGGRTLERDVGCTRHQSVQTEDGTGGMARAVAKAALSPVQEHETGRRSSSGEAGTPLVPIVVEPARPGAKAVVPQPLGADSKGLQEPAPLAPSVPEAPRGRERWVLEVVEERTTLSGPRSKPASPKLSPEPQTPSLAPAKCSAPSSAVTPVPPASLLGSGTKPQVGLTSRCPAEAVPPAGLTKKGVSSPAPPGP

[3] = target: DNA-PK/Ku70/Ku85 (Homo sapiens) (UniProt P78527+P12956+P13010); assay: Inhibition of DNAPK ATP labeling site harbouring KGGSWIQEINVAEKNWYPR in human A-375 cells at 0.5 uM by KiNativ Profiling analysis relative to control; format: cell-based
[4] = target: Cyclin-dependent kinase 5 (Homo sapiens) (UniProt Q00535); assay: Inhibition of CDK5 K2 labeling site harbouring DLKPQNLLINR in human Huh-7 cells at 1 uM by KiNativ Profiling analysis relative to control; format: cell-based
Chain of Cyclin-dependent kinase 5 (Homo sapiens) (Q00535 whole entry, looked up): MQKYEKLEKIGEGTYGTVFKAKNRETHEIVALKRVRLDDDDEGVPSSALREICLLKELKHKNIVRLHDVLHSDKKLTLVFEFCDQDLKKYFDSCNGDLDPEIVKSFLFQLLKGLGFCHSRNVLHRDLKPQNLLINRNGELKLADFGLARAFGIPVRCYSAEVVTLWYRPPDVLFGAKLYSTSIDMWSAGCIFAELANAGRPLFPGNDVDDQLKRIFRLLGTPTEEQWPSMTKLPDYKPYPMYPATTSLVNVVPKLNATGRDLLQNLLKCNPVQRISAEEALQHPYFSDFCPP

[5] = target: Mitogen-activated protein kinase kinase kinase kinase 4 (Homo sapiens, UniProt O95819); assay: Inhibition of ZC1/HGK K2 labeling site in human Huh-7 cells at 1 uM by KiNativ Profiling analysis relative to control; format: cell-based
Chain of Mitogen-activated protein kinase kinase kinase kinase 4 (O95819 2-1239 limits assumed): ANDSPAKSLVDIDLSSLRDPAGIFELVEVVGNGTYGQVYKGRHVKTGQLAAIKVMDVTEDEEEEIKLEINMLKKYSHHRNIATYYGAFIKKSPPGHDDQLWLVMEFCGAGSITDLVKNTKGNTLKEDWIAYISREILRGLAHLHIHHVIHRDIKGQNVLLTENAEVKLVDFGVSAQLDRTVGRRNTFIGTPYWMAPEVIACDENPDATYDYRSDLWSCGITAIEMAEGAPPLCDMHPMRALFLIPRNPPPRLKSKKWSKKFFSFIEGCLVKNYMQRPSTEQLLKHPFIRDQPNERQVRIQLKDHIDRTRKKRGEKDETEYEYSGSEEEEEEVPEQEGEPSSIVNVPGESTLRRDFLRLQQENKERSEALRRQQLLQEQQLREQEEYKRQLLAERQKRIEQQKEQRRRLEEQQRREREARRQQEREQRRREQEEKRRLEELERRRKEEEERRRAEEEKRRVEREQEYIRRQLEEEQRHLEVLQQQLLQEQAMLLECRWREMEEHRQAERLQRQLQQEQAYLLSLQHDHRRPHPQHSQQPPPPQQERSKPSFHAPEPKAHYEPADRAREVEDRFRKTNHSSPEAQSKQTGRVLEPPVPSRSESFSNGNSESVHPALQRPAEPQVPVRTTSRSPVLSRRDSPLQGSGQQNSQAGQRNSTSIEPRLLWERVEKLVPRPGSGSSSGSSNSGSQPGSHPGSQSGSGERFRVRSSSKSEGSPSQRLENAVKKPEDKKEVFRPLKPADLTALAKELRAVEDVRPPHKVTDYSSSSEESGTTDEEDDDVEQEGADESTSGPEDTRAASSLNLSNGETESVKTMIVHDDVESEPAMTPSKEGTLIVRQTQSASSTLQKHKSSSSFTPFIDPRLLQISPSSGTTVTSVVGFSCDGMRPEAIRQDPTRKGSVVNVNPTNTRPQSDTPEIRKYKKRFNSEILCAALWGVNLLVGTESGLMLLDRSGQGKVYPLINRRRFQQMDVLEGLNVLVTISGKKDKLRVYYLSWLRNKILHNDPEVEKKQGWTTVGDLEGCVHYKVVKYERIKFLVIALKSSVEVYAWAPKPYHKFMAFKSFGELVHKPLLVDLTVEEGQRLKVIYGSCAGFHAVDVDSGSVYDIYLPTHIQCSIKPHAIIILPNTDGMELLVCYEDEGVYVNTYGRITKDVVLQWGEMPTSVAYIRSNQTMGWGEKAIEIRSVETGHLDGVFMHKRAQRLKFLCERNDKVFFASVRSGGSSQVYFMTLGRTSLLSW

[6] = target: T2, Serine/threonine-protein kinase ULK1 (Homo sapiens) (UniProt O75385); assay: Inhibition of ULK1 Lys2 labeling site in human A-375 cells at 5 uM by KiNativ Profiling analysis relative to control; format: cell-based
T2 sequence (whole entry): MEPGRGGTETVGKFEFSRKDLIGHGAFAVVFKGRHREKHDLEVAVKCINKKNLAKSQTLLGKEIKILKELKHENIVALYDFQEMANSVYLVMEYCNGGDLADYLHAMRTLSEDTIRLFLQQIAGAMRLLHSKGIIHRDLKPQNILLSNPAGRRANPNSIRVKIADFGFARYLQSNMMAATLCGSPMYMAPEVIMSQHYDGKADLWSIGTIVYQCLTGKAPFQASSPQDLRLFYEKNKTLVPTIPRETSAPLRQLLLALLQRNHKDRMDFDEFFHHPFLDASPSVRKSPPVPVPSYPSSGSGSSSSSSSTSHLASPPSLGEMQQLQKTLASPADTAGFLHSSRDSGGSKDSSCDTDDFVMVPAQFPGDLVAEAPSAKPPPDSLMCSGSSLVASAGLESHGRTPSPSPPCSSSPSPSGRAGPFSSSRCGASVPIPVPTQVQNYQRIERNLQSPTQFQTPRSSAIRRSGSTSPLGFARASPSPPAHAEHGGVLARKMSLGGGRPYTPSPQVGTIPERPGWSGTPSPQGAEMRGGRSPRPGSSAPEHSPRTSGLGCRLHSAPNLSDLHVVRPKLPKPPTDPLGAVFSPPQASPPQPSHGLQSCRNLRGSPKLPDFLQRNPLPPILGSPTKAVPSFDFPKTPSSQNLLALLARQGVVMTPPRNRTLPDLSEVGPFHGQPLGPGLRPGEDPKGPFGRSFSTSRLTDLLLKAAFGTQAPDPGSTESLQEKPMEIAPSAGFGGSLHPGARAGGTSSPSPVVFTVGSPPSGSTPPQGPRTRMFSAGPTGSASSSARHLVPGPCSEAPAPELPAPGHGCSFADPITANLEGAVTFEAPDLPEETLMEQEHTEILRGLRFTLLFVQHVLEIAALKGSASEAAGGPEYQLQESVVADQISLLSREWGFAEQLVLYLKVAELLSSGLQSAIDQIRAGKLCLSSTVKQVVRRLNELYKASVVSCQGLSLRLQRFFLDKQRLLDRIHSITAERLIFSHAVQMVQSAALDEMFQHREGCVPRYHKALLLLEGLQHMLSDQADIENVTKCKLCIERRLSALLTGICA

## CNc1cc(Oc2cc(C(=O)Nc3cc(N4CCN(C)CC4)cc(C(F)(F)F)c3)ccc2C)ncn1
[1]
  inhibition: -4.9%

## CCN1CCN(Cc2ccc(NC(=O)c3ccc(C)c(Oc4ccnc5[nH]ccc45)c3)cc2C(F)(F)F)CC1
[2]
  inhibition: 16.1%
[3]
  inhibition: 13.7%
[4]
  inhibition: -7.6%
[5]
  inhibition: 23%

## CCN1CCN(Cc2ccc(NC(=O)c3ccc(C)c(/C=C/c4cnc5[nH]ccc5c4OC)c3)cc2C(F)(F)F)CC1
[6]
  inhibition: -1.3%
